Test results published in paper PMC11656837, “pH-Responsive Peptide Nanoparticles Deliver Macromolecules to Cells via Endosomal Membrane Nanoporation” (ACS Nano, 2024).

Test system: HeLa cells
Conditions: 40 nM PE-III
From the text: For this, we use PE-III, the third domain of the Pseudomonas exotoxin. This 25 kDa enzyme ADP ribosylates ribosomal elongation factor 2, thereby blocking protein synthesis and triggering apoptosis. […] Thus, apoptosis will occur only if an exogenous agent, such as a peptide, enables cytosolic delivery of the 4 × 3 nm PE-III protein, Figure 2A.
Comparison of peptide concentration midpoints requires a constant concentration of PE-III in each experiment. […] The major disadvantage of the PE-III assay to detect delivery is that only a few molecules of active PE-III delivered to the cytosol[36] will produce a positive result. To partly mitigate this effect in the assays described below, we use a constant 40 nM PE-III. At such a low concentration, each endosome will contain an average of fewer than one PE-III molecule if we assume passive entrapment of the cargo (see the Supporting Information).
The no treatment (no tx) control group contained cells but no peptide or PE-III enzyme. The Alamar Blue intensity of this group was defined as 100% viability. Media alone without cells was defined as 0% viability.
The concentration range used for each peptide was adjusted according to preliminary measurements of activity in this assay. We assessed PE-III delivery by measuring cell viability using Alamar Blue.
Fifteen thousand HeLa cells were seeded in a clear bottom, black-walled 96-well plate overnight at 37 °C with 5% CO2 in complete media (DMEM + phenol red +10% FBS + antimycotic/antibiotic + nonessential amino acids). Cells were then washed once in PBS and treated with PE-III and peptide in serum-free media without phenol red, with a 50 μL total volume. After a 2-day incubation with treatment, 50 μL of 10% Alamar blue reagent diluted in serum-free media was added directly to each well (5% Alamar blue final) and incubated for 1.5 h at 37 °C. The plate was then read at 550 equiv/590 em on a Biotek plate reader. Untreated cells were used as a negative control, and MelP5-treated cells served as a positive control.

Structure (SMILES): CCCCCCCCCCCCCCCC(=O)NCC(=O)N[C@@H](C(=O)NCC(=O)N[C@H](CCC(=O)O)C(=O)N[C@@H](C(=O)N[C@H](CC(C)C)C(=O)N[C@H](Cc1c[nH]cn1)C(=O)N[C@H](CCC(=O)O)C(=O)N[C@H](CC(C)C)C(=O)N[C@H](C)C(=O)N[C@H](CCC(=O)O)C(=O)NCC(=O)N[C@H](CC(C)C)C(=O)N1CCC[C@@H]1C(=O)N[C@H](CCC(=O)O)C(=O)N[C@H](CC(C)C)C(=O)N[C@H](CCC(N)=O)C(=O)N[C@H](CCC(=O)O)C(=O)N[C@H](Cc1c[nH]c2ccccc12)C(=O)N[C@@H](C(=O)N[C@H](Cc1c[nH]cn1)C(=O)N[C@H](C)C(=O)N[C@H](C)C(=O)N[C@H](CCC(N)=O)C(=O)N[C@H](CCC(N)=O)C(=O)N[C@H](CC(C)C)C(N)=O)[C@H](C)CC)C(C)C)[C@H](C)CC [C16-D-pHD108]
- cells that undergo apoptosis (10 μM peptide): > 98%
- fold increase in activity over unmodified pHD108 (from EC50 in HeLa): 74 fold
- EC50 (read-out: EC50 (peptide concentration midpoint for PE-III-dependent apoptosis), HeLa, serum-free media, 48 h, 37 °C, Alamar Blue): 1.9 µM
